Series [1] is described as follows: Models of protein nitration. To be noted: physiological conditions (neutral pH). In kind it is biochemical.
Series [2] has as its system streptozotocin (STZ)-induced diabetic rats. As to the kind of experiment: Mechanical thresholds in streptozotocin (STZ)-induced diabetic rats. Format: in vivo, rat. The procedure:
Experiments were conducted to determine the effect of Compound 1 in streptozotocin (STZ)-induced diabetic rats. In the first experiment, after obtaining mechanical threshold baselines, STZ (50 mg/kg IV) was administered (Day −7). Two days later, blood glucose levels were measured and animals that were hyperglycemic (>250 mg/dL) continued in the study. On Day 0 the baseline for mechanical thresholds prior to dosing with test articles was established for the rats. Compound 1 (10, 30, and 100 mg/kg PO), gabapentin (100 mg/kg PO) or vehicle was then administered daily for 5 days. On Day 0 mechanical thresholds were obtained at 1, 3, and 6 h post-dose. On Day 1 mechanical thresholds were measured immediately prior to dosing and then 3 h post-dose. The same regimen was followed on Day 3.
In a subsequent study, the same STZ paradigm was followed. However, in addition to the 100 mg/kg Compound 1 group, two additional cohorts received the Compound 1 100 mg/kg dose split into two or three doses per day with 50 mg/kg BID and 33 mg/kg TID. In addition to the gabapentin (100 mg/kg PO) group, a separate cohort received duloxetine (30 mg/kg PO). Additionally, in this study mechanical threshold testing was implemented every day immediately prior to dosing and 2 h post-dose for 7 days.

For series [3], the system named is methylglyoxal-induced diabetic neuropathy. As to the kind of experiment: Rat model of diabetic neuropathy, methylglyoxal-induced. Format: in vivo. To be noted: methylglyoxal-induced (overview).
The nature of series [4]: Chemical-based assays of peroxynitrite (PN) oxidation (luminol). In kind it is biochemical.
Series [5] has as its system STZ-induced mechanical allodynia. As to the kind of experiment: Diabetic neuropathy model of FIG. 10 (STZ, mechanical hypersensitivity). Format: in vivo, mice. To be noted: STZ on day −7. The procedure:
Streptozotocin (STZ) destroys insulin-producing cells and generates a diabetic phenotype in mice. Animals were dosed with STZ on day −7. By day 0, animals are hyperglycemic and hyperalgesic (day 0 BL).

The target of another series is T1, P-gp (MDR1/ABCB1) (Homo sapiens, UniProt P08183).
T1 construct: Caco-2 cells; endogenous in cells; host or cells: Caco-2 cells
T1 sequence (P08183 whole entry): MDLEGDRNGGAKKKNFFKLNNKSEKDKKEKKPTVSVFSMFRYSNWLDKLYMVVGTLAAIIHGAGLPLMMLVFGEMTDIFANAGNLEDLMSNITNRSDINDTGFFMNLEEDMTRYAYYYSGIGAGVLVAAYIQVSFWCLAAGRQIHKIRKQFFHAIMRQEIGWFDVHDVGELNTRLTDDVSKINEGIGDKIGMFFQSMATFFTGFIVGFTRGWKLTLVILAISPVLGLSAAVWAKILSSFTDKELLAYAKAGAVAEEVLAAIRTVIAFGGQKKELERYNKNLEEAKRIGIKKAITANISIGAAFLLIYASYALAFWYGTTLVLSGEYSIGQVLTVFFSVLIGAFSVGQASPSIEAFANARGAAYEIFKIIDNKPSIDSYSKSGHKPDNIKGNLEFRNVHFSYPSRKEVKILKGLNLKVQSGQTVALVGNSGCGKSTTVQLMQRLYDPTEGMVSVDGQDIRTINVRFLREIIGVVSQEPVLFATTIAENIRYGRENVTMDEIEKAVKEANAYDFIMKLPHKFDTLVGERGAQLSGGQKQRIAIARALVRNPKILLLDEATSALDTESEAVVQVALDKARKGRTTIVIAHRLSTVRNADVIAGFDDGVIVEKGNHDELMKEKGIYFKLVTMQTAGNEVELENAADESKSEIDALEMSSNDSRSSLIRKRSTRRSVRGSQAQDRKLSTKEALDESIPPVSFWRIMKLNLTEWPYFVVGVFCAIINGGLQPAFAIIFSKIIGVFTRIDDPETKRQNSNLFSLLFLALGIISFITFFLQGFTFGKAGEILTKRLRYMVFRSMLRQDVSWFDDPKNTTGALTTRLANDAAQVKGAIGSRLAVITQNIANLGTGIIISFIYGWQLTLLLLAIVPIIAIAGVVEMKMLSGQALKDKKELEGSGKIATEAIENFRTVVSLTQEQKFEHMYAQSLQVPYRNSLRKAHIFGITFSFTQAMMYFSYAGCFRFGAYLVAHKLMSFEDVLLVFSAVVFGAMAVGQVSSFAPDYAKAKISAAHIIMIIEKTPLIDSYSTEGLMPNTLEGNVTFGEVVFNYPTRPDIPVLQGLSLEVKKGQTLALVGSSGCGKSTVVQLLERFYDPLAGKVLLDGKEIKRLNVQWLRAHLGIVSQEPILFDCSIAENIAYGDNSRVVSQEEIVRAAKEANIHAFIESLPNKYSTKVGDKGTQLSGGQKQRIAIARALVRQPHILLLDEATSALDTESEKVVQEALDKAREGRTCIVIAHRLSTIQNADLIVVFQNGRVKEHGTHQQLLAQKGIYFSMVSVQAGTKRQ
As to the kind of experiment: Inhibition of transporters, P-gp (Caco-2 cells, digoxin). Format: in vitro ADME.

Series [6] relates to lactoperoxidase oxidation (mediated by peroxide). The series is described as follows: Lactoperoxidase oxidation (mediated by peroxide). In kind it is biochemical. To be noted: physiological conditions (neutral pH).
A further series is described as follows: Excretion in rats. Format: in vivo, rat.
For a further series, the target named is T2, OAT3 (Homo sapiens, UniProt Q8TCC7).
T2 construct: expressed in transfected cells; host or cells: HEK293 cells
T2 sequence (Q8TCC7 1-542): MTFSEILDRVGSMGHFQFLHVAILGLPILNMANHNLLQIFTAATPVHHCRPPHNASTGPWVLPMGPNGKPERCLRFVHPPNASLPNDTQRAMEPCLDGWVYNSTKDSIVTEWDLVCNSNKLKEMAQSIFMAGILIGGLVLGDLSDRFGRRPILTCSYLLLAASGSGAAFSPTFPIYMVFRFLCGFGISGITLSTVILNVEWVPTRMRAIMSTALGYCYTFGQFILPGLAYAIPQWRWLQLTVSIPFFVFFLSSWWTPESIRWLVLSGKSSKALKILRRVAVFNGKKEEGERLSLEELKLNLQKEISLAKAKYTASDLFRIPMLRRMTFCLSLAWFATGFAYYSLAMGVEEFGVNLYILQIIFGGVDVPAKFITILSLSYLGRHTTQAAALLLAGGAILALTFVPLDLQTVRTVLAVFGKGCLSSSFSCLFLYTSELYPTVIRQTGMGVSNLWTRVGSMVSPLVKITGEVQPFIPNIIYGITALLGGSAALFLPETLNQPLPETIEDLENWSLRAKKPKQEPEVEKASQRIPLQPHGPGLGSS
As to the kind of experiment: Inhibition of transporters, OAT3 (HEK293 cells). Format: in vitro ADME.

A further series deals with uninjured animals. As to the kind of experiment: Normal sensation in uninjured animals. In kind it is in vivo. To be noted: given to uninjured animals.
For series [7], the system named is hypersensitivity caused by an injury/insult such as an incision or irritant. The series is described as follows: Hypersensitivity caused by an injury/insult (incision or irritant). To be noted: in vivo.
Series [8] can be described thus: Stability in hepatocytes, human. In kind it is in vitro ADME.
The target in the next series is T3, BCRP (ABCG2) (Homo sapiens, UniProt Q9UNQ0).
T3 construct: expressed in transfected cells; host or cells: MDCKII-BCRP cells (with MDCKII control cells)
T3 sequence (Q9UNQ0 1-655): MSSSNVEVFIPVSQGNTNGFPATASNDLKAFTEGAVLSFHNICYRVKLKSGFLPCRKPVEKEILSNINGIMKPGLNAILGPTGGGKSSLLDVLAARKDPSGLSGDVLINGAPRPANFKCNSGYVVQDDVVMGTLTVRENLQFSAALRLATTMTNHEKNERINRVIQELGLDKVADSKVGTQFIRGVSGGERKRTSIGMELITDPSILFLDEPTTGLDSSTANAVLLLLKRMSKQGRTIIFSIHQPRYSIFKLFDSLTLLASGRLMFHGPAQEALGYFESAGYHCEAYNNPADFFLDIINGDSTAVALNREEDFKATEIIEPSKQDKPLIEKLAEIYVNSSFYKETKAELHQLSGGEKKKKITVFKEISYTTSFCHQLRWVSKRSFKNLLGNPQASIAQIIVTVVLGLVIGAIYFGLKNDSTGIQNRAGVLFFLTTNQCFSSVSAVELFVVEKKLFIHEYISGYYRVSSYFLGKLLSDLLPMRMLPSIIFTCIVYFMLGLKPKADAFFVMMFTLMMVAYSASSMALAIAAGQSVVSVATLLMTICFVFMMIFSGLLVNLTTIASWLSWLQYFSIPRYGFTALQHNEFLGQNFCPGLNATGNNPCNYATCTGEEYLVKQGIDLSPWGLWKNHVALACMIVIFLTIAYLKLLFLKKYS
The series is described as follows: Inhibition of transporters, BCRP (MDCKII cells, prazosin). Format: in vitro ADME.

A short description of series [9]: In vivo epimerization by chiral methods.

Where a name gives a salt, the structure may show the parent alone.

With `CC1(C)SC(Nc2ccccc2O)=N[C@@H]1C(=O)O` [Compound 1, (R)-2-(2-hydroxyphenylamino)-5,5-dimethyl-4,5-dihydrothiazole-4-carboxylic acid mono-hydrochloride], the removal of peroxynitrite result in series [1] and in series [6] was “catalytically remove peroxynitrite” throughout. In addition, the “reversal of allodynia (mechanical threshold relative to vehicle)” value in series [2] (first experiment, 10, 30, 100 mg/kg PO daily, subsequent days) is “statistically-significant”. The “reversal of allodynia (mechanical threshold)” value in series [2] (first experiment, Compound 1 10, 30, 100 mg/kg PO, gabapentin 100 mg/kg PO daily, Day 0 (gabapentin: 1 h post-dose on Day 0 and all time points thereafter)) was “non-significant reversal of allodynia”; in [2] (subsequent study, 7 days, Compound 1 100 mg/kg QD, 50 mg/kg BID, 33 mg/kg TID, gabapentin 100 mg/kg PO, duloxetine 30 mg/kg PO) it was “reversed allodynia upon continued daily dosing reaching statistical significance from Day 1 and beyond”. For the same molecule, the “effect on mechanical threshold compared with gabapentin” value in series [2] (first experiment, subsequent days, gabapentin 100 mg/kg PO) is reported as “comparable to gabapentin”. In addition, the effect on allodynia entry in [2] (rat model of diabetic neuropathy, streptozotocin-induced (overview)) was “alleviates allodynia”; in series [3], “alleviates allodynia”. Further, the “difference between dosing regimens” value in series [2] (subsequent study, 100 mg/kg QD vs 50 mg/kg BID vs 33 mg/kg TID) is recorded as “no clear difference”. The “PN-mediated oxidation of small-molecule organic substrates such as luminol” value in series [4] is on record as “inhibits PN-mediated oxidation”. Moreover, the “effect on STZ-induced mechanical allodynia” value in series [5] is “blocks STZ-induced mechanical allodynia”. For the same molecule, on P-gp (MDR1/ABCB1), the “inhibition of P-gp (in words)” value is “does not inhibit”. For the same molecule, the “form excreted into urine and feces” value in the series “Excretion in rats” is “primarily as a sulfate conjugate”. The “inhibition of OAT3 (in words)” value at OAT3 was “weakly inhibits”. Besides, the “effect on normal sensation” value in the series with uninjured animals was “does not alter normal sensation”. Besides, the reversal of hypersensitivity result in [7] is “complete reversal of hypersensitivity”. Besides, in [8], the stability in hepatocytes result is “stable”. For the same molecule, at BCRP (ABCG2), the “inhibition of BCRP (in words)” value was “modestly inhibits”. For the same molecule, in series [9], the epimerization in vivo result is “no epimerization”.

Values taken from US20200246317A1, “METHODS OF TREATING DIABETIC NEUROPATHY WITH A THIAZOLINE ANTI-HYPERALGESIC AGENT” (CERSCI THERAPEUTICS, INC., priority 2019, published 2020).
